The source of these data is paper PMC8617627, “Novel DYRK1A Inhibitor Rescues Learning and Memory Deficits in a Mouse Model of Down Syndrome” (Pharmaceuticals, 2021).

What all share (test): Kinase profile (33P ATP filter binding)
Holding throughout (assay type): biochemical
Conditions in all cases: read-out: Remaining protein kinase activity

One experiment concerns the target T1, DDR2 (Homo sapiens, UniProt Q16832).
T1 sequence (Q16832 22-855): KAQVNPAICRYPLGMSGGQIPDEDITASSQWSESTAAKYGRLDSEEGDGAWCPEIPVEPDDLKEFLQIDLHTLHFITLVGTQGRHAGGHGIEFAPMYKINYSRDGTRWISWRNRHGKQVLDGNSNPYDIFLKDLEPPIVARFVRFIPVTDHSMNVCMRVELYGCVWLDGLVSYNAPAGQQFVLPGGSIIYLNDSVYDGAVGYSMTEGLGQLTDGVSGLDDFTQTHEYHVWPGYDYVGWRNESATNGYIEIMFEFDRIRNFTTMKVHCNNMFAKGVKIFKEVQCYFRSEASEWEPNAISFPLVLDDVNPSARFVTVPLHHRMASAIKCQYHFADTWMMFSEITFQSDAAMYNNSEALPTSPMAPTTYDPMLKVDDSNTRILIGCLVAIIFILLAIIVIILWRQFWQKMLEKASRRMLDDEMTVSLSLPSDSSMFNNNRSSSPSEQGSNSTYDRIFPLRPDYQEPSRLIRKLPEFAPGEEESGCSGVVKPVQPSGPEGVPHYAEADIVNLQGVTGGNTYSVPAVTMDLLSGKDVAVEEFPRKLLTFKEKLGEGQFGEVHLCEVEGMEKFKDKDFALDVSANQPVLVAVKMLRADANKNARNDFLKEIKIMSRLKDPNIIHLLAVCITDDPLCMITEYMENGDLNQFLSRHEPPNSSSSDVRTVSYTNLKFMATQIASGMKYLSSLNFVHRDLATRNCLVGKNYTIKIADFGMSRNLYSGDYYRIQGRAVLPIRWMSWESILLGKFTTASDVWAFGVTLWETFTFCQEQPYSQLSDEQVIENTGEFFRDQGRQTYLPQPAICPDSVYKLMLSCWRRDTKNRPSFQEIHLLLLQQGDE

For another experiment, the target named is MELK (Homo sapiens, UniProt Q14680).
Chain of MELK (Q14680 whole entry): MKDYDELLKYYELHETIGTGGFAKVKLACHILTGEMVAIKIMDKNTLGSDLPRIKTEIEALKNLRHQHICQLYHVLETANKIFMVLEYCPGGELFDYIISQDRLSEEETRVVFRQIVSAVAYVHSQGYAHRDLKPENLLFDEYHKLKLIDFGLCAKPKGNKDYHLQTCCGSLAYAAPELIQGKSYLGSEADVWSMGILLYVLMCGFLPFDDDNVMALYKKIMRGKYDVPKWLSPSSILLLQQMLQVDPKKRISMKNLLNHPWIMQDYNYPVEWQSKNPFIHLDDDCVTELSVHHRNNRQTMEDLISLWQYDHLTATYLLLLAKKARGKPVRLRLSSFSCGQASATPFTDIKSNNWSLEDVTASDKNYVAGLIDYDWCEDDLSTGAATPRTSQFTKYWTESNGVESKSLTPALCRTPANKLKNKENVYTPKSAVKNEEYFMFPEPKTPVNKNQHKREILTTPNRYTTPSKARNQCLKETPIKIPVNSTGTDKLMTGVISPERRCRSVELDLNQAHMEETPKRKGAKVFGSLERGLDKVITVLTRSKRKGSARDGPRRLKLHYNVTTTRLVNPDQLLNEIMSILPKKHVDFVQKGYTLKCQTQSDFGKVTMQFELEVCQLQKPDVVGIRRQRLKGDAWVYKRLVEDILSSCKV
The target of another experiment is T2, ULK2 (Homo sapiens, UniProt Q8IYT8).
T2 sequence (Q8IYT8 1-1036): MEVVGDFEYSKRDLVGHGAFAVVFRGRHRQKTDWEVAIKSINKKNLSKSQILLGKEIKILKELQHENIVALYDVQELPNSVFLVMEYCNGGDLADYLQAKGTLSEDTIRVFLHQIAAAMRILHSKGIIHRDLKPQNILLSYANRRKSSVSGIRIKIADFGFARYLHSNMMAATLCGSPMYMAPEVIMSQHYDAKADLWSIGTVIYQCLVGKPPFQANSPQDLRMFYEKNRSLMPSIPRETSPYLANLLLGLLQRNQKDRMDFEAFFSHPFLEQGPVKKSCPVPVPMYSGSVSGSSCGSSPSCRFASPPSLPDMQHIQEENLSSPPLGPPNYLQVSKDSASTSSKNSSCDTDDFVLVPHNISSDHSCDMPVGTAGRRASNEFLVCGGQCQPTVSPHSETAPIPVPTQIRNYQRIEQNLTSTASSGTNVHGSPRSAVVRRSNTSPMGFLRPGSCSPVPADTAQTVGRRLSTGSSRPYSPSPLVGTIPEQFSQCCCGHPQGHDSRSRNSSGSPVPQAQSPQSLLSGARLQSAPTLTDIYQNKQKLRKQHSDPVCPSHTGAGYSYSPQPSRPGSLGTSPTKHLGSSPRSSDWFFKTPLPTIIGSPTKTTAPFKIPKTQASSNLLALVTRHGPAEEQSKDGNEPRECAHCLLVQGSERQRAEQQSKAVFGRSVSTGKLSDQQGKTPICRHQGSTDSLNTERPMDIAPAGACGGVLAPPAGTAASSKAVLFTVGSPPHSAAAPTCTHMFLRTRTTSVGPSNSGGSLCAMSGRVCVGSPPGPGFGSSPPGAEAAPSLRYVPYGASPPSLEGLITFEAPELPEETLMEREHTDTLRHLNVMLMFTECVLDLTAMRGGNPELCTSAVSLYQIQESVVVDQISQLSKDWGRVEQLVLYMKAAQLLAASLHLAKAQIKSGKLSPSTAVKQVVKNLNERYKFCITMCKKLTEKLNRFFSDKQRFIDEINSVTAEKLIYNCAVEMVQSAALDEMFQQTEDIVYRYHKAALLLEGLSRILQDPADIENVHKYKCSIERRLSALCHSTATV

Molecules are shown by their SMILES. Read-outs that look alike come from different tables or passages of the source.

In the case of `COc1ccc2sc(-c3cncc(N)c3)nc2c1` [compound 1, 5-(5-Methoxybenzo[d]thiazol-2-yl)pyridin-3-amine], the remaining activity at 1 µM on DDR2 (DDR2, 1 μM) turned out to be 107%; at MELK (MELK, 1 μM) it was 96%; at ULK2 (ULK2, 1 μM) it was 101%. The remaining activity at 100 µM is 49% on DDR2 (DDR2, 100 μM); 12% on MELK (MELK, 100 μM); 50% at ULK2 (ULK2, 100 μM).
Take `COc1ccc2sc(-c3cncc(NC(C)=O)c3)nc2c1` [PST-001, N-(5-(5-Methoxybenzo[d]thiazol-2-yl)pyridin-3-yl)acetamide]: the remaining activity at 1 µM on DDR2 stood at 98%; on MELK, 99%; at ULK2, 111%. For the same compound, the results for the remaining activity at 100 µM at DDR2, on MELK and at ULK2 were 80%, 44% and 119%, respectively.

Broadly, the remaining activity is the signal under treatment as a percentage of the control signal.
